Where “and” joins values, the source holds several entries; their conditions need not be identical. Equal values may be shown once. Toxic doses and inconclusive results are not listed. Residues, ends and D or L forms follow the SMILES beside them. *: point of attachment. Cbz = O=C(OCc1ccccc1)*; OtBu = CC(C)(C)O*
Test system: BDF1 mice, P388 leukemia ip, median survival T/C
Assay: NCI In Vivo Anticancer Drug Screen. Data for tumor model P388 Leukemia (intraperitoneal) in B6D2F1 (BDF1) mice
Details: endpoint: median survival time, higher = longer survival
Summary of the method: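 Mice carrying the transplantable tumour receive compound or vehicle. Survival is followed in each arm, and the treated measure is divided by the vehicle measure.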

[1] = dose: 25.0 mg/kg/injection, schedule: Q01DX009 (ip), vehicle: saline
[2] = dose: 100.0 mg/kg/injection, schedule: Q04DX003 (ip), vehicle: Klucel (hydroxypropylcellulose) (HPC)
[3] = dose: 200.0 mg/kg/injection, schedule: Q04DX003 (ip), vehicle: Klucel (hydroxypropylcellulose) (HPC)
[4] = dose: 50.0 mg/kg/injection, schedule: Q01DX009 (ip), vehicle: saline with Tween-80
[5] = dose: 100.0 mg/kg/injection, schedule: Q01DX009 (ip), vehicle: saline with Tween-80
[6] = dose: 200.0 mg/kg/injection, schedule: Q01DX009 (ip), vehicle: saline with Tween-80
[7] = dose: 400.0 mg/kg/injection, schedule: Q01DX009 (ip), vehicle: saline with Tween-80
[8] = dose: 100.0 mg/kg/injection, schedule: Q01DX009 (ip), vehicle: Klucel (hydroxypropylcellulose) (HPC)
[9] = dose: 200.0 mg/kg/injection, schedule: Q01DX009 (ip), vehicle: Klucel (hydroxypropylcellulose) (HPC)
[10] = dose: 50.0 mg/kg/injection, schedule: Q01DX009 (ip), vehicle: Klucel (hydroxypropylcellulose) (HPC)

Structure (SMILES): O=NN(CCCl)C(=O)N[C@@H]1CCCC[C@H]1NC(=O)N(CCCl)N=O
- T/C (dose: 0.12 mg/kg/injection, schedule: Q04DX003 (ip), vehicle: Klucel (hydroxypropylcellulose) (HPC)): 120 % of control
- T/C (dose: 0.18 mg/kg/injection, schedule: Q01DX009 (ip), vehicle: Klucel (hydroxypropylcellulose) (HPC)): 100 % of control
- T/C (dose: 0.25 mg/kg/injection, schedule: Q04DX003 (ip), vehicle: Klucel (hydroxypropylcellulose) (HPC)): 100 % of control
- T/C (dose: 0.37 mg/kg/injection, schedule: Q01DX009 (ip), vehicle: Klucel (hydroxypropylcellulose) (HPC)): 88 % of control
- T/C (dose: 0.5 mg/kg/injection, schedule: Q04DX003 (ip), vehicle: Klucel (hydroxypropylcellulose) (HPC)): 108 % of control
- T/C (dose: 0.75 mg/kg/injection, schedule: Q01DX009 (ip), vehicle: Klucel (hydroxypropylcellulose) (HPC)): 88 % of control
- T/C (dose: 1.0 mg/kg/injection, schedule: Q04DX003 (ip), vehicle: Klucel (hydroxypropylcellulose) (HPC)): 150 % of control
- T/C (dose: 1.5 mg/kg/injection, schedule: Q01DX009 (ip), vehicle: Klucel (hydroxypropylcellulose) (HPC)): 88 % of control
- T/C (dose: 2.0 mg/kg/injection, schedule: Q04DX003 (ip), vehicle: Klucel (hydroxypropylcellulose) (HPC)): 113 % of control
- T/C (dose: 3.0 mg/kg/injection, schedule: Q04DX003 (ip), vehicle: Klucel (hydroxypropylcellulose) (HPC)): 109 % of control
- T/C (dose: 4.5 mg/kg/injection, schedule: Q01DX009 (ip), vehicle: Klucel (hydroxypropylcellulose) (HPC)): 191 % of control
- T/C (dose: 6.0 mg/kg/injection, schedule: Q01DX009 (ip), vehicle: Klucel (hydroxypropylcellulose) (HPC)): 172 % of control
- T/C (dose: 6.0 mg/kg/injection, schedule: Q04DX003 (ip), vehicle: Klucel (hydroxypropylcellulose) (HPC)): 150 % of control and 162 % of control and 172 % of control
- T/C (dose: 7.0 mg/kg/injection, schedule: Q01DX009 (ip), vehicle: Klucel (hydroxypropylcellulose) (HPC)): 233 % of control
- T/C (dose: 9.0 mg/kg/injection, schedule: Q04DX003 (ip), vehicle: Klucel (hydroxypropylcellulose) (HPC)): 213 % of control
- T/C (dose: 11.0 mg/kg/injection, schedule: Q01DX009 (ip), vehicle: Klucel (hydroxypropylcellulose) (HPC)): 237 % of control and 250 % of control
- T/C (dose: 12.0 mg/kg/injection, schedule: Q01DX009 (ip), vehicle: Klucel (hydroxypropylcellulose) (HPC)): 250 % of control
- T/C (dose: 12.0 mg/kg/injection, schedule: Q04DX003 (ip), vehicle: Klucel (hydroxypropylcellulose) (HPC)): 159 % of control
- T/C (dose: 12.5 mg/kg/injection, schedule: Q01DX009 (ip), vehicle: Klucel (hydroxypropylcellulose) (HPC)): 155 % of control
- T/C (dose: 13.0 mg/kg/injection, schedule: Q04DX003 (ip), vehicle: Klucel (hydroxypropylcellulose) (HPC)): 250 % of control and 204 % of control
- T/C (dose: 16.5 mg/kg/injection, schedule: Q01DX009 (ip), vehicle: Klucel (hydroxypropylcellulose) (HPC)): 250 % of control
- T/C (dose: 20.0 mg/kg/injection, schedule: Q04DX003 (ip), vehicle: Klucel (hydroxypropylcellulose) (HPC)): 260 % of control and 272 % of control
- T/C (dose: 25.0 mg/kg/injection, schedule: Q01DX009 (ip), vehicle: Klucel (hydroxypropylcellulose) (HPC)): 272 % of control and 280 % of control
- T/C [1]: 250 % of control
- T/C (dose: 25.0 mg/kg/injection, schedule: Q04DX003 (ip), vehicle: Klucel (hydroxypropylcellulose) (HPC)): 222 % of control
- T/C (dose: 30.0 mg/kg/injection, schedule: Q04DX003 (ip), vehicle: Klucel (hydroxypropylcellulose) (HPC)): 250 % of control and 272 % of control and 300 % of control
- T/C (dose: 35.0 mg/kg/injection, schedule: Q01DX009 (ip), vehicle: saline): 91 % of control
- T/C (dose: 40.0 mg/kg/injection, schedule: Q04DX003 (ip), vehicle: Klucel (hydroxypropylcellulose) (HPC)): 300 % of control
- T/C (dose: 44.0 mg/kg/injection, schedule: Q04DX003 (ip), vehicle: Klucel (hydroxypropylcellulose) (HPC)): 250 % of control
- T/C (dose: 50.0 mg/kg/injection, schedule: Q04DX003 (ip), vehicle: Klucel (hydroxypropylcellulose) (HPC)): 272 % of control
- T/C (dose: 67.0 mg/kg/injection, schedule: Q04DX003 (ip), vehicle: Klucel (hydroxypropylcellulose) (HPC)): 241 % of control and 250 % of control and 300 % of control
- T/C [2]: 260 % of control and 150 % of control and 195 % of control
- T/C (dose: 150.0 mg/kg/injection, schedule: Q04DX003 (ip), vehicle: Klucel (hydroxypropylcellulose) (HPC)): 95 % of control
- T/C [3]: 86 % of control and 122 % of control

Structure (SMILES): N#CC1(NC(Cc2ccccc2)c2ccccc2)CCCCCCCCCCC1 (centres undefined)
- T/C [4]: 92 % of control
- T/C [5]: 86 % of control
- T/C [6]: 104 % of control
- T/C [7]: 102 % of control

Structure (SMILES): CCOC(=O)c1ccc2c3c([nH]c2c1C)-c1ccccc1CC3
- T/C [4]: 120 % of control
- T/C [5]: 111 % of control
- T/C [6]: 118 % of control

Structure (SMILES): CCOC(=O)c1c[nH]c2ccc(N(CCCl)CCCl)cc12
- T/C (dose: 0.29 mg/kg/injection, schedule: Q01DX009 (ip), vehicle: saline with Tween-80): 101 % of control
- T/C (dose: 0.44 mg/kg/injection, schedule: Q01DX009 (ip), vehicle: saline with Tween-80): 101 % of control
- T/C (dose: 0.88 mg/kg/injection, schedule: Q01DX009 (ip), vehicle: saline with Tween-80): 152 % of control
- T/C (dose: 0.88 mg/kg/injection, schedule: Q04DX003 (ip), vehicle: saline with Tween-80): 118 % of control
- T/C (dose: 1.32 mg/kg/injection, schedule: Q04DX003 (ip), vehicle: saline with Tween-80): 122 % of control
- T/C (dose: 1.33 mg/kg/injection, schedule: Q01DX009 (ip), vehicle: saline with Tween-80): 158 % of control
- T/C (dose: 2.0 mg/kg/injection, schedule: Q01DX009 (ip), vehicle: saline with Tween-80): 177 % of control
- T/C (dose: 2.66 mg/kg/injection, schedule: Q01DX009 (ip), vehicle: saline with Tween-80): 164 % of control
- T/C (dose: 3.0 mg/kg/injection, schedule: Q01DX009 (ip), vehicle: saline with Tween-80): 186 % of control
- T/C (dose: 4.0 mg/kg/injection, schedule: Q01DX009 (ip), vehicle: saline with Tween-80): 176 % of control
- T/C (dose: 5.0 mg/kg/injection, schedule: Q04DX003 (ip), vehicle: saline with Tween-80): 158 % of control
- T/C (dose: 6.0 mg/kg/injection, schedule: Q01DX009 (ip), vehicle: saline with Tween-80): 191 % of control
- T/C (dose: 7.5 mg/kg/injection, schedule: Q04DX003 (ip), vehicle: saline with Tween-80): 166 % of control
- T/C (dose: 9.0 mg/kg/injection, schedule: Q01DX009 (ip), vehicle: saline with Tween-80): 252 % of control
- T/C (dose: 12.5 mg/kg/injection, schedule: Q04DX003 (ip), vehicle: saline with Tween-80): 190 % of control
- T/C (dose: 25.0 mg/kg/injection, schedule: Q04DX003 (ip), vehicle: saline with Tween-80): 177 % of control
- T/C (dose: 50.0 mg/kg/injection, schedule: Q04DX003 (ip), vehicle: saline with Tween-80): 218 % of control

Structure (SMILES): CCOC(=O)C(C(=O)OCC)C1c2ccccc2C(=NO)c2ccccc21 (centres undefined)
- T/C [8]: 100 % of control
- T/C [2]: 112 % of control
- T/C [9]: 109 % of control
- T/C [3]: 104 % of control
- T/C (dose: 400.0 mg/kg/injection, schedule: Q01DX009 (ip), vehicle: Klucel (hydroxypropylcellulose) (HPC)): 109 % of control
- T/C (dose: 400.0 mg/kg/injection, schedule: Q04DX003 (ip), vehicle: Klucel (hydroxypropylcellulose) (HPC)): 91 % of control

Structure (SMILES): CN(C)CCC(=O)c1ccccc1
- T/C [1]: 100 % of control

Structure (SMILES): CCCCCCNC1=CC(=O)CC(C)(C)C1
- T/C (dose: 50.0 mg/kg/injection, schedule: Q01DX009 (ip), vehicle: saline): 105 % of control
- T/C (dose: 100.0 mg/kg/injection, schedule: Q01DX009 (ip), vehicle: saline): 99 % of control
- T/C (dose: 200.0 mg/kg/injection, schedule: Q01DX009 (ip), vehicle: saline): 107 % of control

Structure (SMILES): COC(=O)C(CCC(=O)OC(C)(C)C)NC(=O)C(NC(=O)OCc1ccccc1)C(C)C (stereo not drawn) (Cbz-Val-Glu(OtBu)-OMe; configuration not given here)
- T/C [5]: 100 % of control
- T/C [6]: 100 % of control
- T/C [7]: 95 % of control

Structure (SMILES): Nc1nc(SSc2nc(N)nc3c2ncn3C2CC(O)C(CO)O2)c2ncn(C3CC(O)C(CO)O3)c2n1 (centres undefined)
- T/C [10]: 150 % of control
- T/C [8]: 100 % of control

Structure (SMILES): FC(F)(F)c1cc(NC2=NCCN=C(Nc3cc(C(F)(F)F)cc(C(F)(F)F)c3)SS2)cc(C(F)(F)F)c1
- T/C [10]: 102 % of control
- T/C [8]: 96 % of control
- T/C [9]: 110 % of control

Structure (SMILES): CC1CN1P(=S)(Oc1ccccc1)N1CC1C (centres undefined)
- T/C [6]: 150 % of control
- T/C (dose: 264.0 mg/kg/injection, schedule: Q01DX009 (ip), vehicle: saline with Tween-80): 122 % of control
- T/C (dose: 300.0 mg/kg/injection, schedule: Q01DX009 (ip), vehicle: saline with Tween-80): 155 % of control
- T/C [7]: 150 % of control

Structure (SMILES): Sc1ccccc1-n1c(-c2ccccc2)ccc1-c1ccccc1
- T/C [4]: 101 % of control
- T/C [5]: 88 % of control
- T/C [6]: 87 % of control
- T/C [7]: 102 % of control

— PubChem BioAssay AID328 (DTP/NCI, 2004)
